From patent US8722901B2, “Carboxy oxazole or thiazole compounds as DGAT-1 inhibitors useful for the treatment of obesity” (Piramal Enterprises Limited, priority 2009, dated 2014)

Assays:
Swiss mice = assay: Fat tolerance test (ftt) in mice; format: in vivo; conditions: 3 mg/kg p.o., olive oil load 10 ml/kg p.o., reduction in AUC0-4h, vehicle group as 100%
Protocol: Study Protocol for Screening of Compounds for Fat Tolerance Test (ftt) in Mice
Swiss mice of age 4-5 weeks and body weight between 25-30 g were selected for study. After overnight fasting, animals were divided into three groups based on plasma triglyceride level with same mean and variation Animals were administered with either vehicle (1% Tween 80 in 0.5% carboxy methylcellulose) or with compounds of the present invention (3 mg/kg, p.o.). Compounds of the present invention were prepared as suspension in 0.5% carboxy methylcellulose (CMC) with 1% Tween 80. 30 minutes after the treatment, olive oil load (10 ml/kg, p.o.) was given. Blood samples were collected at 1, 2, 3 and 4 h after the fat (olive oil) load. Plasma was separated and triglyceride level was measured using commercially available kits (Diasys, Germany). Percentage reduction in area under curve (AUC0-4h) of the test compound was calculated by taking AUC0-4h of the vehicle group as 100%.

hDGAT-1 = molecular target: T1, hDGAT-1 (Homo sapiens, UniProt O75907); assay: In-vitro DGAT-1 assay (14C oleoyl CoA, microsomes from Sf9 cells); format: biochemical; conditions: 1 μM compound; hDGAT-1 containing microsomes from Sf9 cells
T1 construct: host or cells: Sf9 insect cells (baculovirus); microsomal fraction
T1 sequence (O75907 1-488): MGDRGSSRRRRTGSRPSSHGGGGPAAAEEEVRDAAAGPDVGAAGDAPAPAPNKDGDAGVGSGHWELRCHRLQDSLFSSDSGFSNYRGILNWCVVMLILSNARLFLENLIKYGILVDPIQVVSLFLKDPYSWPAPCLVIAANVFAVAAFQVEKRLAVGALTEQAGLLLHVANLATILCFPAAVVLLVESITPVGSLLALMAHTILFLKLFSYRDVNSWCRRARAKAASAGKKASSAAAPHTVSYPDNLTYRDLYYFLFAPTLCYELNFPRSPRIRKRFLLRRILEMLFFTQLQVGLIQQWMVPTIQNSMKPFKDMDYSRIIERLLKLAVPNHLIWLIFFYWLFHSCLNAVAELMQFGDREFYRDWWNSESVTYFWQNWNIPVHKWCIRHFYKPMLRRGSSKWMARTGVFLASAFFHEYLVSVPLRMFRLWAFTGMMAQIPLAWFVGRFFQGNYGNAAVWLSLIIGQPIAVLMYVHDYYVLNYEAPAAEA
Protocol: In-Vitro Protocol for DGAT-1 Assay
Sf9 Culture and Treatment
Sf9 cells were grown in T25 flasks containing Graces's Insect media (Invitrogen, US) with 10% FBS (Hyclone, US) with antibiotic (100 units/mL penicillin, 100 μg/mL streptomycin sulphate, 0.25 μg/mL amphotericin B as Fungizone) grown in a 27° C. incubator.
hDGAT-10RF expression clone (RZPDo839C09146 in pDEST vector) was obtained from RZPD, Germany. hDGAT-1 bacmid DNA was obtained by transformation of the hDGAT expression clone into DH10Bac E. coli competent cells. Approximately 1 μg of hDGAT-1 bacmid DNA was infected into Sf9 cells with Cellfectin (Invitrogen, US) reagent. Following infection, Sf9 cells were incubated at 27° C. for 30 minutes. Five hours after infection, the media was replaced with growth media containing antibiotic (100 units/mL penicillin, 100 μg/mL streptomycin sulphate, 0.25 μg/mL amphotericin B as Fungizone) and incubated at 27° C. for 72 hours. The supernatant containing the virus was centrifuged at 1500 g for 5 minutes, passed through 0.22 μm filter, and subsequently stored at 4° C. The virus was further amplified three more times by re-infection of Sf9 cells and the viral titer was determined by plaque assay.
Preparation of DGAT-1 Microsomes from Sf9 Cells
Sf9 cells were seeded in spinner flasks on day 0 at a cell density of 1×10^6 and infected on day 1 with hDGAT-1 baculovirus at a multiplicity of infection (MOI) of 5 and a cell density of 2×10^6. On day 3 (or 66-72 hours), cells were harvested and centrifuged at 2500 g for 10 minutes. Pellet was resuspended in lysis buffer (100 mM sucrose, 50 mM KCl, 40 mM KH2PO4, 30 mM EDTA, pH 7.2) and passed through 21-gauge needle approximately 10 times. […] The supernatant was subjected to centrifugation at 35,000 rpm in a Beckman Ti-45 rotor at 4° C. for 1 hour. The resultant pellet containing the microsomes were resuspended overnight in 1 mL of lysis buffer and total protein concentration was estimated using Bradford Reagent (Sigma, US). Microsomes were aliquoted and stored at −80° C.
Measurement of DGAT-1 Activity
Frozen aliquots of hDGAT-1 containing microsomes were thawed (5-10 mg/mL total protein) on ice and diluted to a working stock of 1 mg/mL with DGAT Assay Buffer (DAB).
The assay was performed in duplicates in a reaction volume of 100 μL. […] Procedure:
The reaction was started by the addition of […] of 1 mg/mL of microsomes (iv) to the mixture and incubated at 37° C. for 10 minutes. […] The mixture was vortexed and the triglycerides formed were extracted into the organic heptane phase.

Molecule: CC(C)C(NC(=O)c1ncc(-c2ccc(NC(=O)Nc3ccccc3Oc3ccccc3)cc2)s1)C(=O)O (centres unmarked) [Example 16, 3-methyl-2-(5-(4-(3-(2-phenoxyphenyl)ureido)phenyl)thiazole-2-carboxamido)butanoic acid]
- % Reduction (Plasma triglyceride) (Swiss mice): ++ (>50% Reduction ≦100)

Molecule: CC(C)C(NC(=O)c1ncc(-c2ccc(NC(=O)Nc3ccccc3Cl)cc2)s1)C(=O)O (centres unmarked) [Example 12, 2-(5-(4-(3-(2-Chlorophenyl)ureido)phenyl)thiazole-2-carboxamido)-3-methylbutanoic acid]
- % Reduction (Plasma triglyceride) (Swiss mice): ++ (>50% Reduction ≦100)

Molecule: CC(C)C(NC(=O)c1ncc(-c2ccc(NC(=O)Nc3cccc(C(F)(F)F)c3)cc2)s1)C(=O)O (centres unmarked) [Example 10, 3-methyl-2-(5-(4-(3-(3-(trifluoromethyl)phenyl)ureido)phenyl)thiazole-2-carboxamido)butanoic acid]
- % Reduction (Plasma triglyceride) (Swiss mice): ++ (>50% Reduction ≦100)

Molecule: CC(C)C(NC(=O)c1ncc(-c2ccc(NC(=O)c3ccc(C(C)(C)C)cc3)cc2)s1)C(=O)O (centres unmarked) [Example 22, 2-(5-(4-(4-tert-butylbenzamido)phenyl)thiazole-2-carboxamido)-3-methylbutanoic acid]
- % Reduction (Plasma triglyceride) (Swiss mice): ++ (>50% Reduction ≦100)

Molecule: CC(C)C(NC(=O)c1ncc(-c2ccc(NC(=O)Nc3ccccc3Cl)cc2)o1)C(=O)O (centres unmarked) [Example 4, 2-(5-(4-(3-(2-Chlorophenyl)ureido)phenyl)oxazole-2-carboxamido)-3-methylbutanoic acid]
- % Reduction (Plasma triglyceride) (Swiss mice): + (>0% Reduction ≦50)
- inhibition at 1 µM (hDGAT-1): 50 to 100%

Molecule: CC(C)C(NC(=O)c1ncc(-c2ccc(NC(=O)Nc3ccc(Cl)cc3Oc3ccccc3)cc2)s1)C(=O)O (centres unmarked) [Example 18, 2-(5-(4-(3-(4-chloro-2-phenoxyphenyl)ureido)phenyl)thiazole-2-carboxamido)-3-methylbutanoic acid]
- % Reduction (Plasma triglyceride) (Swiss mice): ++ (>50% Reduction ≦100)

Molecule: CC(C)C(NC(=O)c1ncc(-c2ccc(Nc3nc4ccc(F)cc4s3)cc2)s1)C(=O)O (centres unmarked) [Example 20, 2-(5-(4-(6-fluorobenzo[d]thiazol-2-ylamino)phenyl)thiazole-2-carboxamido)-3-methylbutanoic acid]
- % Reduction (Plasma triglyceride) (Swiss mice): ++ (>50% Reduction ≦100)

Molecule: 2-(5-(4-(3-(3,4-dimethylphenyl)ureido)phenyl)oxazole-2-carboxamido)-3-methylbutanoic acid [Example 14]
- % Reduction (Plasma triglyceride) (Swiss mice): ++ (>50% Reduction ≦100)
- % inhibition of hDGAT-1 at 1 μM (hDGAT-1): ++ (>50% Inhibition ≦100)

Molecule: CC(C)[C@H](NC(=O)c1ncc(-c2ccc(NC(=O)Nc3ccc(Cl)cc3F)cc2)o1)C(=O)O [Example 64, (S)-2-(5-(4-(3-(4-chloro-2-fluorophenyl)ureido)phenyl)oxazole-2-carboxamido)-3-methylbutanoic acid]
- inhibition at 1 µM (hDGAT-1): 50 to 100%
